Assay results from PMC5424495.

Legend:
[1] = reversible transimination ring closure of 1,3-distal diimine cone-calix[4]arene (tetrakis(2-ethoxyethoxy)) with alpha,omega-diaminoalkanes H2N(CH2)nNH2, displacing hexylamine chain stopper; no catalyst; thermodynamic equilibrium in dynamic library; details: the molecule shown is the open-chain precursor, CD3CN, 2.5 mM, 25.0 °C
[2] = same transimination equilibrium: L1 (bis-hexylimine calix[4]arene) + diamine 3 = C1 + 2 hexylamine; details: the molecule shown is the open-chain precursor, CD3CN, 2.5 mM, 25.0 °C, 2 steps

CCCCCC/N=C/c1cc2c(OCCOCC)c(c1)Cc1cccc(c1OCCOCC)Cc1cc(/C=N/CCN)cc(c1OCCOCC)Cc1cccc(c1OCCOCC)C2 [C1a (diamine 3a, n=2)]
ring closure, effective molarity ([1]; 17-membered ring): 0.05 M | ring closure, K ([2]; 17-membered ring): 0.025 M

CCCCCC/N=C/c1cc2c(OCCOCC)c(c1)Cc1cccc(c1OCCOCC)Cc1cc(/C=N/CCCN)cc(c1OCCOCC)Cc1cccc(c1OCCOCC)C2 [C1b (diamine 3b, n=3)]
ring closure, effective molarity ([1]; 18-membered ring): 0.5 M | ring closure, K ([2]; 18-membered ring): 0.9 M

CCCCCC/N=C/c1cc2c(OCCOCC)c(c1)Cc1cccc(c1OCCOCC)Cc1cc(/C=N/CCCCN)cc(c1OCCOCC)Cc1cccc(c1OCCOCC)C2 [C1c (diamine 3c, n=4)]
ring closure, effective molarity ([1]; 19-membered ring): 0.01 M | ring closure, K ([2]; 19-membered ring): 0.03 M

CCCCCC/N=C/c1cc2c(OCCOCC)c(c1)Cc1cccc(c1OCCOCC)Cc1cc(/C=N/CCCCCN)cc(c1OCCOCC)Cc1cccc(c1OCCOCC)C2 [C1d (diamine 3d, n=5)]
ring closure, effective molarity ([1]; 20-membered ring): 1.5 M | ring closure, K ([2]; 20-membered ring): 3 M

CCCCCC/N=C/c1cc2c(OCCOCC)c(c1)Cc1cccc(c1OCCOCC)Cc1cc(/C=N/CCCCCCN)cc(c1OCCOCC)Cc1cccc(c1OCCOCC)C2 [C1e (diamine 3e, n=6)]
ring closure, effective molarity ([1]; 21-membered ring): 0.01 M | ring closure, K ([2]; 21-membered ring): 0.026 M
